US6605426B1, “Compounds, methods of screening, and in vitro and in vivo uses involving anti-apoptotic genes and anti-apoptotic gene products” (priority 1998, dated 2003)
Residues, ends and D or L forms follow the SMILES beside them. *: point of attachment. Cbz = O=C(OCc1ccccc1)*; CH2F = FC*

Key:
Format in all cases: cell-based, human
MRC-5 cells = details: for cell death of MRC-5 cells: within the first 24 h of exposure, anti-Fas and TNF-α only in the presence of CHX, phase microscope
Experimental: (§1) Tumor necrosis factor receptor 1 (TNF-R1)-mediated apoptosis was induced by exposure of HeLa and MRC-5 cells to tumor necrosis factor-α (TNF-α) (Sigma, 10-60 ng/mL)+CHX (10-30 μg/mL). Fas-mediated apoptosis was induced by exposure of cells to an anti-Fas antibody (Coulter, 7C11 antibody at 0.2-4 μg/mL)+CHX (10-30 μg/mL). The degree of cell death was determined by the visual scoring of surviving cells, in representative fields, under a phase microscope.
The time-course of apoptosis was also analyzed by examining the expression of phosphatidylserine on the cell surface, as detected with FITC-labeled Annexin V, and by a dye-exclusion test using propidium iodide. These two tests were performed with an ApoAlert Annexin V Apoptosis kit (Clontech) in accordance with the manufacturer's recommendations, on a flow cytometer (FACScan, Becton-Dickinson).
These experiments were performed on MRC-5, a normal human fibroblast cell line which can be productively infected by HCMV in cell culture. The present inventors first examined whether infection of cells with HCMV alters the cell's sensitivity to Fas- or TNF-R1-mediated apoptosis.

[1] = tested on: HCMV-infected MRC-5 cells; experiment: Apoptosis resistance of HCMV-infected MRC-5 cells in presence of viral DNA polymerase inhibitors; details: concentration sufficient to inhibit viral replication; challenge two days later with anti-Fas antibody+CHX or TNF-α+CHX
From the text: To discriminate between these two mechanisms, MRC-5 cells were infected with HCMV in the presence (or absence) of inhibitors of viral DNA polymerase, such as phosphonacetic acid or gancyclovir (Huang, 1975; Crumpacker, 1996) which prevent the expression of the late genes of HCMV in the host cell (Mocarski, 1996).
MRC-5 cells uninfected (FIG. 3A) or infected with HCMV (FIG. 3B) were either untreated, or treated with either phosphonacetic acid or gancyclovir at a concentration sufficient to inhibit viral replication (Huang, 1975; Crumpacker, 1996). Two days later these cells were challenged with either anti-Fas antibody+CHX or TNF-α+CHX (FIGS. 3A and 3B). Although nearly all non-infected MRC-5 cells underwent apoptosis, irrespective of the presence or absence of phosphonacetic acid or gancyclovir, a major fraction of cells exposed to HCMV survived the challenge with the apoptotic stimuli in the absence of the viral DNA polymerase inhibitors. Further, a somewhat smaller but still large fraction of cells survived in the presence of the inhibitors. Thus, the insensitivity of HCMV-infected cells to apoptosis was not abolished by these drugs.

HeLa cells = experiment: Transient transfection apoptosis assay in HeLa cells (anti-Fas antibody+CHX or TNF-α+CHX); details: for protection of HeLa cells at very low plasmid concentration: 0.1% to 1% of the total DNA transfected, mixed with control vector, anti-Fas antibody+CHX; for β-gal levels after anti-Fas antibody+CHX treatment: plasmids diluted several hundred fold, β-gal marker plasmid
Experimental: as §1, with “microscope. A similar degree of cell death occurred in fibroblasts when examined 5 to 28 h after the start of exposure, or a similar degree of cell death occurred in HeLa cells when examined 9-28 h after the start of exposure. Further, a similar degree of cell death for a given reagent was produced when any concentration within the range indicated above was used.” for “microscope.”
The degree of cell death in cells transfected with an indicator plasmid expressing E. coli β-galactosidase was determined by either a β-galactosidase ELISA (Boehringer Mannheim), in accordance with the manufacturer's recommendations, or by visually scoring, under a microscope, positive blue cells, expressing β-galactosidase, after staining them with X-gal.
HeLa cells were transiently co-transfected with an expression plasmid vector, pME18S, carrying a polynucleotide sequence encoding IE1 or IE2 (FIG. 5, “IE1” and “IE2,” respectively), and a vector carrying the β-galactosidase gene (pCMVβ, Clontech). As a positive control, HeLa cells were transiently co-transfected with pCMVβ and a vector carrying a polynucleotide sequence encoding an anti-apoptotic polypeptide, such as the adenovirus E1B 19K or baculovirus p35.
Expression of IE1 (approx. 72 kDa) and IE2 (approx. 86 kDa) in the transfected HeLa cells was confirmed by Western blot analysis, by immunofluorescence visually examined under a fluorescence microscope, and by transactivation activity which led to an elevation of the vector-CMV-promoter-driven β-galactosidase expression which was increased 2- to 5-fold, as measured by a β-galactosidase ELISA (data not shown). Apoptosis was induced by incubating the transfected cells for 24 h with either TNF-α+CHX, or anti-Fas antibody+CHX. The surviving cells were stained with X-gal, a chromogenic substrate of β-galactosidase, and then the blue-stained cells were scored (FIG. 5).
To identify HCMV genes that can suppress apoptosis induced by Fas-ligation, the present inventors established a transient transfection assay in HeLa cells. The HeLa cells can be transfected at much higher efficiency than MRC-5 cells and are similar in their sensitivity towards anti-Fas antibody and TNF-α treatment. Enhanced survival of HeLa cells following anti-Fas antibody+CHX treatment was detected by elevated β-galactosidase (β-gal) levels produced by a transfected β-gal marker plasmid.
The deletion mutants were transiently expressed in HeLa cells, cultured in DMEM supplemented with 10% fetal bovine serum, and assayed for their ability to block Fas- or TNF-R1-mediated apoptosis. Transfections and apoptosis assays were performed as previously described (Goldmacher et al., 1999). Briefly, cells were transiently transfected with the expression vectors (purified with a Qiagen plasmid purification kit) using SuperFect transfection reagent (Qiagen) in accordance with the manufacturer's protocol. After 24 hours, cells were exposed to anti-Fas 7C11 antibody (Coulter, 0.5 μg/ml)+cyclohexamide (Sigma, 10 μg/ml) for 24 hours.
A genomic DNA library was cloned into pZeoSV2(+) plasmid (Invitrogen). Ten cosmids, pCM1007, pCM1015, pCM1017, pCM1029, pCM1035, pCM1039, pCM1040, pCM1052, pCM1058, and pCM1072, covering the AD169 genome (Fleckenstein et al., 1982, which is incorporated herein by reference), and pON2601 Toledo cosmid (Cha et al., 1996, which is incorporated herein by reference) containing unique HCMV sequences, were mixed in equal amounts and partially digested with Sau3AI (New England Biolabs, Beverly, Mass.). […]

[2] = tested on: Fas-mediated apoptotic signaling in HeLa cells; experiment: Western blot of Fas-mediated apoptotic signaling events in HeLa clones
Experimental: Cells were trypsinized, washed in Tris buffered saline, resuspended in a lysis buffer (150 mM NaCl, 5 mM EDTA, 50 mM Tris.HCl pH 8.0, 1% Triton X-100), freshly supplemented with phenylmethylsulfonyl fluoride (0.1 mM), leupeptin ([…]) and pepstatin (1 μg/mL), incubated on ice for 30 minutes, and centrifuged at 16,000 g for 15 minutes, at 4° C. Cytochrome c and procaspase 9 were detected in S-1 00 fractions of cells (Li et al., 1997, which is incorporated herein by reference).
The intracellular polypeptides were detected by Western blot analysis. Samples containing protein were electrophoretically resolved under reduced conditions, on Laemmli SDS-PAGE (Novex), after equal amounts of protein were loaded per well of the gel, detected using a standard Western blot protocol and a luminol-based ECL Western Blotting system (Amersham). The following antibodies were used in the Western blot analysis: anti-human Bid C-20 (Santa Cruz Biotechnology), 5F7 anti-human caspase 8 (Upstate Biotechnology), C210 anti-PARP (Biomol), 7H8.2C12 anti-cytochrome c (Pharmigen), B40 anti-human caspase 9 (Pharmigen), FITC-anti-mouse IgG (Sigma), HRP-anti-mouse IgG-F, (Pierce), HRP-anti-mouse IgG2b (Boehringer Mannheim), HRP-anti-rabbit IgG, and HRP-anti-mouse Ig (Amersham).
The impact of pUL37S on biochemical events involved in Fas-mediated apoptosis was examined by comparing control HeLa/pcDNA3 cells, which are sensitive to anti-Fas antibody plus CHX, to HeLa clones expressing either pUL37S or cellular Bcl-xL, both of which are resistant to Fas-mediated apoptosis. Ligation of Fas triggers the recruitment and activation of caspase 8 through the adapter molecule FADD (Ashkenazi et al., 1998). This process was not impaired by pUL37S since pro-caspase 8 was processed in pUL37S-expressing cells similar to its processing in either Bcl-xL-expressing cells, or control cells within 4 h of the exposure to anti-Fas antibody plus CHX, but not CHX alone (FIG. 16A). Fas-signaling is connected to mitochondrial events in apoptosis through Bid, a pro-apoptotic BH3 polypeptide that is proteolyzed by caspase 8 and subsequently translocates to mitochondria where it triggers cytochrome c release (Li et al., 1998; Lu et al., 1998).

C[C@@H]1C[C@@H]([C@H](O)CC2CC(=O)NC(=O)C2)C(=O)[C@@H](C)C1 [CHX, Cycloheximide]
cell death of MRC-5 cells (MRC-5 cells): did not kill cells

Nc1nc(O)c2ncn(COC(CO)CO)c2n1 [gancyclovir]
effect on insensitivity of HCMV-infected cells to apoptosis [1]: not abolished

TNF-α
cell death of MRC-5 cells (MRC-5 cells): died

Bcl-2: human anti-apoptotic gene product
protection of HeLa cells at very low plasmid concentration (HeLa cells): detectable protection

COC(=O)C[C@H](NC(=O)[C@H](C)NC(=O)[C@@H](NC(=O)OCc1ccccc1)C(C)C)C(=O)CF [Z-VADfmk] (Cbz-Val-Ala-Asp(OMe)-CH2F)
effect on Fas- and TNF-R1-mediated MRC-5 cell death (MRC-5 cells; caspase inhibitor added with anti-Fas antibody or TNF-α +CHX): prevented

Bcl-xL: human cellular anti-apoptotic polypeptide
protection of HeLa cells at very low plasmid concentration (HeLa cells): detectable protection
β-gal levels after anti-Fas antibody+CHX treatment (HeLa cells): enhanced β-gal levels
cleavage of PARP ([2]; 4 h anti-Fas antibody plus CHX): inhibited
cytochrome c release ([2]; 4 h anti-Fas antibody plus CHX): not observed
processing of procaspase 9 ([2]; 4 h anti-Fas antibody plus CHX): inhibited
processing of pro-caspase 8 ([2]; within 4 h of anti-Fas antibody plus CHX): processed

O=C(O)CP(=O)(O)O [phosphonacetic acid]
effect on insensitivity of HCMV-infected cells to apoptosis [1]: not abolished

B1: p35: baculovirus anti-apoptotic polypeptide, positive control (protein, UniProt P08160 1-299, looked up)
Early 35 kDa protein: MCVIFPVEIDVSQTIIRDCQVDKQTRELVYINKIMNTQLTKPVLMMFNISGPIRSVTRKNNNLRDRIKSKVDEQFDQLERDYSDQMDGFHDSIKYFKDEHYSVSCQNGSVLKSKFAKILKSHDYTDKKSIEAYEKYCLPKLVDERNDYYVAVCVLKPGFENGSNQVLSFEYNPIGNKVIVPFAHEINDTGLYEYDVVAYVDSVQFDGEQFEEFVQSLILPSSFKNSEKVLYYNEASKNKSMIYKALEFTTESSWGKSEKYNWKIFCNGFIYDKKSKVLYVKLHNVTSALNKNVILNTIK
protection of HeLa cells at very low plasmid concentration (HeLa cells): detectable protection
survival of transfected cells after apoptosis induction (HeLa cells; HeLa cells, 24 h with either TNF-α+CHX or anti-Fas antibody+CHX, X-gal stained cells scored): survived
β-gal levels after anti-Fas antibody+CHX treatment (HeLa cells): enhanced β-gal levels
